For series [1], the system named is ADSCs. Nature of the series: Vacuolization assay. It counts as cell-based, human. The settings on record: 5 μM, 4 h. The procedure: After 4 h, pictures were acquired using a phase contrast microscope (DMi1, Leica, Wetzlar, Germany).
Series [2] concerns ADSCs. As to the kind of experiment: Acidic vesicle quantification (Lysotracker). It counts as cell-based, human. The procedure: After treatment, the medium was removed, and the cells were stained with 50 nM Lysotracker Deep Red (Invitrogen, Waltham, MA, USA) and 5 μg/mL Hoechst 33342 (Sigma). Staining was conducted in the dark at 37 °C for 30 min. Fluorescence signals were captured using a FLoid Cell Imaging Station (Life Technology, Carlsbad, CA, USA). The ratio of Lysotracker red signal to blue nuclear signal was quantified using ImageJ software. For acidic vesicle rescue experiments, ADSCs were plated at a concentration of 10,000 cells per well in 48-well plates.

The subject of series [3] is ADSCs. As to the kind of experiment: Transferrin uptake (clathrin-dependent endocytosis). Format: cell-based, human. The following applies: 16 h treatment; transferrin 5 min. The protocol: For INSRβ endocytosis experiments, the cells were stimulated with 50 ng/mL insulin for 15 min. For transferrin endocytosis experiments, the cells were incubated with 25 μg/mL Transferrin Texas Red for 5 min. After treatment, the cells were washed with PBS and fixed with 4% PFA for 10 min at room temperature, followed by an additional PBS wash. The cells were then permeabilized by incubating them with cold HEPES-Triton X-100 buffer for 5 min at 4 °C. After permeabilization, the cells were incubated with primary antibodies for 30 min, followed by incubation with Alexa Fluor 488- or 546-conjugated secondary antibodies (Invitrogen, Waltham, MA, USA) and phalloidin, labeled with either Alexa Fluor 546 or 633 (Invitrogen Waltham, MA, USA) for 30 min. After incubation, coverslips were mounted on glass slides using a mounting medium. Images were acquired using a confocal microscope (Leica TCS SP8, Wetzlar, Germany) and analyzed using ImageJ (v 1.52a) software in order to quantify and analyze the fluorescence signals.

The test system of a further series is 3T3L1 cells. Nature of the series: PA accumulation in cells transfected with DOCK2-Pii. It counts as cell-based, mouse. The settings on record: 5 μM, 16 h; compared to untreated controls. The procedure:
Transfection was carried out using Lipofectamine 3000 (Thermo Fisher Scientific, Waltham, MA, USA), following the manufacturer’s instructions. The cells were incubated with the plasmid for 24 h to ensure successful transfection and plasmid expression and were used for experiments 48 h post-transfection.

Series [4] has as its system PPARG, FABP4, HSL, and LPL. Nature of the series: Adipogenic gene expression (real-time PCR). It counts as cell-based, human. The following applies: differentiated cells cotreated with 5 µM. The protocol:
After treatment, RNA was extracted using the phenol/chloroform method (RNAzol, Sigma-Aldrich, Saint Louis, MO, USA) followed by isopropanol precipitation, according to the manufacturer’s instructions. The precipitated RNA was then washed with 75% ice-cold ethanol and resuspended in water. The RNA concentration was measured using NanoDrop 2000. cDNA was synthesized via reverse transcription using recombinant Moloney murine leukemia virus reverse transcriptase (MultiScribe Reverse Transcriptase, Bio-Rad, Hercules, CA, USA) and the iScript cDNA Synthesis Kit (Bio-Rad, Hercules, CA, USA). Gene expression was analyzed using real-time PCR using the SsoAdvanced Universal SYBR Green Supermix Kit (Bio-Rad, Hercules, CA, USA). Relative quantification was calculated using the ΔΔCt method.

In the case of `Cc1cc2c(s1)Nc1ccccc1N=C2N1CCN(C)CC1` [olanzapine], in the series with ADSCs [1], the vacuolization induction result is listed as “absent”. Moreover, in the series on ADSCs [2], the “acidic compartment accumulation (Lysotracker staining)” value is “progressive time- and dose-dependent increase”; the “concentrations at which acidic compartment accumulation was observed” value is given as “below 1 µM”. Also, in the series with ADSCs [3], the short-term transferrin endocytosis entry is “significant reduction”. In the series with 3T3L1 cells, the PA accumulation entry is “significant accumulation”. Further, the “expression of genes related to adipogenesis (PPARG, FABP4, HSL, LPL)” value in series [4] was “significantly reduced expression”.

The record behind these values is PMC11674800, “Second-Generation Antipsychotics Induce Metabolic Disruption in Adipose Tissue-Derived Mesenchymal Stem Cells Through an aPKC-Dependent Pathway” (Cells, 2024).
